Reference: patent US9067977B2, “Peptides derivatized with A-B-C-D- and their therapeutical use” (Novo Nordisk A/S, priority 2007, dated 2015)
Residues, ends and D or L forms follow the SMILES beside them. *: point of attachment. X3 = O=C(O)CCCCCCCCCCCCCCCCCCC(=O)NC[C@H]1CC[C@H](C(=O)N[C@@H](CCC(=O)NCCOCCOCC(=O)NCCOCCOCC(=O)N[C@@H](CCCCN*)C(=O)O)C(=O)O)CC1; Desaminohistidyl = O=C(CCc1c[nH]cn1)*

Target: human serum albumin (HSA) (Homo sapiens, UniProt P02768)
Experiment: Albumin binding affinity, competition scintillation proximity assay
Method: Streptavidin-SPA beads (GE Healthcare RPNQ0009) were incubated with biotinylated HSA for 5 hours. The beads were washed with buffer to remove unbound HSA. […] After 20 hours of gentle rocking at room temperature the plates were centrifuged and counted on a TopCounter.

Chain of human serum albumin (HSA) (P02768 25-609): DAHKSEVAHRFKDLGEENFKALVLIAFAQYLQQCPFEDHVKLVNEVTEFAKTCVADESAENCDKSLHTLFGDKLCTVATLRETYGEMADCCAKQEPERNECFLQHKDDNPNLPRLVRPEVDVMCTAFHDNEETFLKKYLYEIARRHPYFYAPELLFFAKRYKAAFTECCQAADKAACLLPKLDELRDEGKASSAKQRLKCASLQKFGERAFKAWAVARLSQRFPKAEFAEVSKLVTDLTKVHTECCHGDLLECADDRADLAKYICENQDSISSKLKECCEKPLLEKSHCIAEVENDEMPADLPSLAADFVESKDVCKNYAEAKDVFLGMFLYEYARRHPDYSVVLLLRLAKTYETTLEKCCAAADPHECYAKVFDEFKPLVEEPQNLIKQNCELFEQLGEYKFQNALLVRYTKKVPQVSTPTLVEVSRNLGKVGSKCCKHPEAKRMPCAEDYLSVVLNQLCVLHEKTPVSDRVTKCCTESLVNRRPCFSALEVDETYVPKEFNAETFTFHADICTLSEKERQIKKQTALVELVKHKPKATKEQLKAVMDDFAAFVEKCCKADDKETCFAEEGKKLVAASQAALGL

SMILES	EC50	EC50 at 20 h (human, biotinylated human serum albumin on streptavidin-SPA beads, pH 7.4)
CC[C@H](C)[C@H](NC(=O)[C@H](Cc1ccccc1)NC(=O)[C@H](CCC(=O)O)NC(=O)[C@H](CCCNC(=N)N)NC(=O)[C@H](C)NC(=O)[C@H](C)NC(=O)[C@H](CCC(N)=O)NC(=O)[C@H](CCC(=O)O)NC(=O)[C@H](CCC(=O)O)NC(=O)[C@H](CC(C)C)NC(=O)[C@H](Cc1ccc(O)cc1)NC(=O)[C@H](CO)NC(=O)[C@H](CO)NC(=O)[C@@H](NC(=O)[C@H](CC(=O)O)NC(=O)[C@H](CO)NC(=O)[C@@H](NC(=O)[C@H](Cc1ccccc1)NC(=O)[C@@H](NC(=O)CNC(=O)[C@H](CCC(=O)O)NC(=O)[C@H](C)NC(=O)CCc1c[nH]cn1)[C@@H](C)O)[C@@H](C)O)C(C)C)C(=O)N[C@@H](C)C(=O)N[C@@H](Cc1c[nH]c2ccccc12)C(=O)N[C@@H](CC(C)C)C(=O)N[C@H](C(=O)N[C@@H](CCCNC(=N)N)C(=O)NCC(=O)N[C@@H](CCCNC(=N)N)C(=O)NCCCC[C@H](NC(=O)COCCOCCNC(=O)COCCOCCNC(=O)CC[C@H](NC(=O)[C@H]1CC[C@H](CNC(=O)CCCCCCCCCCCCCCCCCCC(=O)O)CC1)C(=O)O)C(=O)O)C(C)C [Example 53, N-alpha37-[2-(2-{2-[2-(2-{2-[(S)-4-Carboxy-4-({trans-4-[(19-carboxynonadecanoylamino)methyl]cyclohexanecarbonyl}amino)butyrylamino]ethoxy}ethoxy)acetylamino]ethoxy}ethoxy)acetyl][DesaminoHis7,Glu22,Arg26,Arg34,epsilon-Lys37]GLP-1-(7-37)] (Desaminohistidyl-AEGTFTSDVSSYLEEQAAREFIAWLVRGR-X3)	1 to 100 nM	
CC[C@H](C)[C@H](NC(=O)[C@H](Cc1ccccc1)NC(=O)[C@H](CCC(=O)O)NC(=O)[C@H](CCCNC(=N)N)NC(=O)[C@H](C)NC(=O)[C@H](C)NC(=O)[C@H](CCC(N)=O)NC(=O)CNC(=O)[C@H](CCC(=O)O)NC(=O)[C@H](CC(C)C)NC(=O)[C@H](Cc1ccc(O)cc1)NC(=O)[C@H](CO)NC(=O)[C@H](CO)NC(=O)[C@@H](NC(=O)[C@H](CC(=O)O)NC(=O)[C@H](CO)NC(=O)[C@@H](NC(=O)[C@H](Cc1ccccc1)NC(=O)[C@@H](NC(=O)CNC(=O)[C@H](CCC(=O)O)NC(=O)[C@H](C)NC(=O)CCc1c[nH]cn1)[C@@H](C)O)[C@@H](C)O)C(C)C)C(=O)N[C@@H](C)C(=O)N[C@@H](Cc1c[nH]c2ccccc12)C(=O)N[C@@H](CC(C)C)C(=O)N[C@H](C(=O)N[C@@H](CCCNC(=N)N)C(=O)NCC(=O)N[C@@H](CCCNC(=N)N)C(=O)N[C@@H](CCCCNC(=O)COCCOCCNC(=O)CC[C@H](NC(=O)CC[C@H](NC(=O)CCCCCCCCCCCNC(=O)CCCS(=O)(=O)NC(=O)CCCCCCCCCCCCCCCc1nnn[nH]1)C(=O)O)C(=O)O)C(N)=O)C(C)C [Example 50]	1 to 100 nM	
CC[C@H](C)[C@H](NC(=O)[C@H](Cc1ccccc1)NC(=O)[C@H](CCC(=O)O)NC(=O)[C@H](CCCNC(=N)N)NC(=O)[C@H](C)NC(=O)[C@H](C)NC(=O)[C@H](CCC(N)=O)NC(=O)CNC(=O)[C@H](CCC(=O)O)NC(=O)[C@H](CC(C)C)NC(=O)[C@H](Cc1ccc(O)cc1)NC(=O)[C@H](CO)NC(=O)[C@H](CO)NC(=O)[C@@H](NC(=O)[C@H](CC(=O)O)NC(=O)[C@H](CO)NC(=O)[C@@H](NC(=O)[C@H](Cc1ccccc1)NC(=O)[C@@H](NC(=O)CNC(=O)[C@H](CCC(=O)O)NC(=O)[C@H](C)NC(=O)CCc1c[nH]cn1)[C@@H](C)O)[C@@H](C)O)C(C)C)C(=O)N[C@@H](C)C(=O)N[C@@H](Cc1c[nH]c2ccccc12)C(=O)N[C@@H](CC(C)C)C(=O)N[C@H](C(=O)N[C@@H](CCCNC(=N)N)C(=O)NCC(=O)N[C@@H](CCCNC(=N)N)C(=O)N[C@@H](CCCCNC(=O)COCCOCCNC(=O)COCCOCCNC(=O)CC[C@H](NC(=O)[C@H]1CC[C@H](CNC(=O)CCCCCCCCCCCCCCCCCCC(=O)O)CC1)C(=O)O)C(N)=O)C(C)C [Example 25]	> 2000 nM	
CC[C@H](C)[C@H](NC(=O)[C@H](Cc1ccccc1)NC(=O)[C@H](CCC(=O)O)NC(=O)[C@H](CCCNC(=N)N)NC(=O)[C@H](C)NC(=O)[C@H](C)NC(=O)[C@H](CCC(N)=O)NC(=O)CNC(=O)[C@H](CCC(=O)O)NC(=O)[C@H](CC(C)C)NC(=O)[C@H](Cc1ccc(O)cc1)NC(=O)[C@H](CO)NC(=O)[C@H](CO)NC(=O)[C@@H](NC(=O)[C@H](CC(=O)O)NC(=O)[C@H](CO)NC(=O)[C@@H](NC(=O)[C@H](Cc1ccccc1)NC(=O)[C@@H](NC(=O)CNC(=O)[C@H](CCC(=O)O)NC(=O)[C@H](C)NC(=O)CCc1c[nH]cn1)[C@@H](C)O)[C@@H](C)O)C(C)C)C(=O)N[C@@H](C)C(=O)N[C@@H](Cc1c[nH]c2ccccc12)C(=O)N[C@@H](CC(C)C)C(=O)N[C@H](C(=O)N[C@@H](CCCNC(=N)N)C(=O)NCC(=O)N[C@@H](CCCNC(=N)N)C(=O)N[C@@H](CCCCNC(=O)COCCOCCNC(=O)CC[C@H](NC(=O)CC[C@H](NC(=O)CCCCCCCCCCCNC(=O)CCCS(=O)(=O)NC(=O)CCCCCCCCCCCCCCCc1nnn[nH]1)C(=O)O)C(=O)O)C(=O)O)C(C)C [Example 65, N-epsilon37-[2-(2-{2-[(S)-4-Carboxy-4-((S)-4-carboxy-4-{12-[4-(16-(1H-tetrazol-5-yl)hexadecanoylsulfamoyl)butyrylamino]dodecanoylamino}butyrylamino)butyrylamino]ethoxy}ethoxy)acetyl][DesaminoHis7,Arg26,Arg34,Lys37]GLP-1-(7-37)]		1 to 100 nM
CC[C@H](C)[C@H](NC(=O)[C@H](Cc1ccccc1)NC(=O)[C@H](CCC(=O)O)NC(=O)[C@H](CCCNC(=N)N)NC(=O)[C@H](C)NC(=O)[C@H](C)NC(=O)[C@H](CCC(N)=O)NC(=O)[C@H](CCC(=O)O)NC(=O)[C@H](CCC(=O)O)NC(=O)[C@H](CC(C)C)NC(=O)[C@H](Cc1ccc(O)cc1)NC(=O)[C@H](CO)NC(=O)[C@H](CO)NC(=O)[C@@H](NC(=O)[C@H](CC(=O)O)NC(=O)[C@H](CO)NC(=O)[C@@H](NC(=O)[C@H](Cc1ccccc1)NC(=O)[C@@H](NC(=O)CNC(=O)[C@H](CCC(=O)O)NC(=O)C(C)(C)NC(=O)[C@@H](N)Cc1c[nH]cn1)[C@@H](C)O)[C@@H](C)O)C(C)C)C(=O)N[C@@H](C)C(=O)N[C@@H](Cc1c[nH]c2ccccc12)C(=O)N[C@@H](CC(C)C)C(=O)N[C@H](C(=O)N[C@@H](CCCNC(=N)N)C(=O)NCC(=O)N[C@@H](CCCNC(=N)N)C(=O)N[C@@H](CCCCNC(=O)COCCOCCNC(=O)COCCOCCNC(=O)C[C@H](NC(=O)C1CCN(C(=O)CCCCCCCCCCCCCCCCCCC(=O)O)CC1)C(=O)O)C(N)=O)C(C)C [Example 4, N-epsilon37{2-[2-(2-{2-[2-((S)-3-carboxy-3-{[1-(19-carboxynonadecanoyl)piperidine-4-carbonyl]amino}propionylamino)ethoxy]ethoxy}acetylamino)ethoxy]ethoxy}acetyl [Aib8,Glu22,Arg26,Arg34,Lys37]GLP-1-(7-37)amide]	300 to 800 nM	
